Where a name gives a salt, the structure may show the parent alone. Read-outs that look alike come from different tables or passages of the source.
Legend:
[1] = tested on: quinolinic acid induced clonic seizures in mice; assay: inhibition of quinolinic acid (intracerebroventricular) induced clonic seizures in mice; assay type: in vivo
Method: The intracerebroventricular administration of quinolinic acid induces clonic seizures in mice.
In this test, groups of 10 mice were pretreated intravenously with varying doses of R-4-Oxo-5-phosphononorvaline(hereinafter compound) ranging from 1 to 16 mg/kg. Five minutes later the mice were administered 7.7 micrograms of quinolinic acid intracerebroventricularly in a volume of 5 microliters of saline. […] A graph was prepared based upon the dose administered and the percentage of animals protected at that dose. An ED50 was calculated from the graph. The test was then repeated in separate mice with the only modification being the addition of 100 mg/kg of probenecid IP. The following ED50 's were obtained.
The protocol described above was repeated except that the compounds was administered intraperitoneally (dosage ranging from 0.5 to 32 mg/kg) and the pretreatment time was extended to 30 minutes. The following ED50 's were obtained.

[2] = tested on: sound induced seizures in DBA/2J audiogenic mice; assay: inhibition of sound induced seizures in audiogenic mice (anti-epileptic activity); assay type: in vivo; conditions: two hours before 110 decibels sound for 30 seconds, 120 min
Source text: One method for evaluating the potential anti-epileptic activity of selected compounds is by their ability to inhibit sound induced seizures in audiogenic mice. DBA/2J audiogenic mice experience seizures when exposed to loud noises. Compounds which prevent this phenomenon are considered to be antiepilpetic agents.
Two hours after administration, they were placed individually in glass jars and exposed to a sound stimulus of 110 decibels for 30 seconds. Each mouse was observed during the sound exposure for signs of seizure activity. A graph was prepared based upon the dose administered and the percentage of animals protected at that dose. An ED50 was calculated from the graph. In some mice the test was performed with the only modification being the addition of 100 mg/kg of probenecid IP.
The test was conducted in the following manner.
Five minutes after administration, they were placed individually in glass jars and exposed to a sound stimulus of 110 decibels for 30 seconds. Each mouse was observed during the sound exposure for signs of seizure activity. A graph was prepared based upon the dose administered and the percentage of animals protected at that dose. An ED50 was calculated from the graph. The test was also performed in separate mice with the only modification being the addition of 100 mg/kg or 200 mg/kg of probenecid IP.

[3] = sodium salt; cited from earlier work

N[C@H](CC(=O)CP(=O)(O)O)C(=O)O [R-4-Oxo-5-phosphononorvaline]
ED50 ([1]; Mus musculus, 5 min, compound alone, intravenous 1 to 16 mg/kg, five minutes before quinolinic acid 7.7 micrograms icv, read-out: ED50): 4 mg/kg | ED50 ([1]; Mus musculus, ip, 0.5 h, compound alone, intraperitoneal 0.5 to 32 mg/kg, 30 minutes pretreatment, read-out: ED50): 16.3 mg/kg | ED50 ([1]; compound intraperitoneal + probenecid (protocol as before: 100 mg/kg IP), 30 minutes pretreatment): 8.0 mg/kg | ED50 ([1]; compound intravenous + 100 mg/kg probenecid IP, five minutes before quinolinic acid 7.7 micrograms icv, 5 min): 2.3 mg/kg

3-[(phenacyl)methylamino]-2-carboxy-4,6-dichloroindole
ED50 ([2]; compound alone, i.p. 25 to 400 mg/kg): 183.7 mg/kg | ED50 ([2]; compound i.p. + 100 mg/kg probenecid IP): 45.4 mg/kg

CCCN(CCC)S(=O)(=O)c1ccc(C(=O)O)cc1 [sodium salt of probenecid]
water solubility [3]: readily water soluble
